# From patent US9060514B2, “Efficacy-enhancing agent composition for agricultural chemicals” (priority 2010, dated 2015)
# Assay: Flash point of solvents
# Assay type: physicochemical
# Details: measured with Cleveland open cup tester or value from 15509 chemical products
# Source text: A flash point was a measured value (with a Cleveland open cup flashpoint tester or a value described in “15509 no Kagaku Seihin (15509 chemical products)” (2009, Jan., 27, Chemical Daily Co., Ltd.). Among solvents used in Comparative Examples, for those having a structure corresponding to the formula (C1), meanings of items in the formula (C1) were shown for convenience.
row,Compound,Flash point
1,CCCCC(CC)CO (stereo not drawn) [2-ethyl-l-hexanol],78 °C
2,CCCCC(CC)COCCOCCO (stereo not drawn) [Diethylene glycol mono2-ethylhexyl ether],151 °C
3,OCCOCCO [Diethylene glycol],138 °C
4,CCCCOCCOCCOCCCC [Diethyleneglycol dibutyl ether],122 °C
5,C[S+](C)[O-] [Dimethylsulfoxide],95 °C
6,OCCO [Ethylene glycol],120 °C
7,CC(C)CO [Isobutanol],28 °C
8,CC(C)O [Isopropanol],12 °C
9,COCCOCCO [Methyl carbitol],105 °C
10,CC(O)CO (stereo not drawn) [Propylene glycol],99 °C

# Other lines, results leading:
row,Flash point,Compound
1,56 °C,COCCOCCOC [Diethylene glycol dimethyl ether]
2,102 °C,CCOCCOCCO [Ethyl carbitol]
3,39 °C,COCCO [Methyl cellosolve]
4,32 °C,COCC(C)O (stereo not drawn) [Propylene glycol monomethyl ether]
5,120 °C,CCCCOCCOCCO [n-Butyl carbitol]
